Laboratory results from EPA's CvTdb concentration-time database.

Columns and labels:
Rat [1] = assay: concentration in plasma after dosing; conditions: 0.25 h; dosed: Gemfibrozil; 4.29 mg/kg; oral; Male; Sprague-Dawley
Rat [2] = assay: concentration in plasma after dosing; conditions: 18 h; dosed: Gemfibrozil; 4.29 mg/kg; oral; Male; Sprague-Dawley
Rat [3] = assay: concentration in plasma after dosing; conditions: 5 min; dosed: Gemfibrozil; 50 mg/kg; oral; Male; Sprague-Dawley
Rat [4] = assay: concentration in plasma after dosing; conditions: 10 h; dosed: Gemfibrozil; 50 mg/kg; oral; Male; Sprague-Dawley
Rat [5] = assay: concentration in plasma after dosing; conditions: 5 min; dosed: Gemfibrozil; 100 mg/kg; oral; Male; Sprague-Dawley
Rat [6] = assay: concentration in plasma after dosing; conditions: 24 h; dosed: Gemfibrozil; 100 mg/kg; oral; Male; Sprague-Dawley
Rat [7] = assay: concentration in brain after dosing; conditions: 6 h; dosed: Fluorotelomer alcohol 8+2; 24 mg/kg; oral; Male; Harlan Sprague Dawley
Rat [8] = assay: concentration in brain after dosing; conditions: 12 h; dosed: Fluorotelomer alcohol 8+2; 80 mg/kg; oral; Female; Harlan Sprague Dawley
Rat [9] = assay: concentration in brain after dosing; conditions: 0.5 h; dosed: Fluorotelomer alcohol 8+2; 24 mg/kg; oral; Male; Harlan Sprague Dawley
Rat [10] = assay: concentration in liver after dosing; conditions: 0.5 h; dosed: Fluorotelomer alcohol 8+2; 80 mg/kg; oral; Female; Harlan Sprague Dawley
Rat [11] = assay: concentration in liver after dosing; conditions: 1 h; dosed: Fluorotelomer alcohol 8+2; 80 mg/kg; oral; Female; Harlan Sprague Dawley
Rat [12] = assay: concentration in plasma after dosing; conditions: dosed: Fluorotelomer alcohol 8+2, 12 mg/kg, oral, Male, Harlan Sprague Dawley
Rat [13] = assay: concentration in plasma after dosing; conditions: dosed: Fluorotelomer alcohol 8+2, 12 mg/kg, oral, Male, Harlan Sprague Dawley; remark: listed apart in the source
Rat [14] = assay: concentration in kidney after dosing; conditions: 12 h; dosed: Fluorotelomer alcohol 8+2; 24 mg/kg; oral; Male; Harlan Sprague Dawley
Rat [15] = assay: concentration in brain after dosing; conditions: 1 h; dosed: Fluorotelomer alcohol 8+2; 80 mg/kg; oral; Female; Harlan Sprague Dawley
Rat [16] = assay: concentration in liver after dosing; conditions: 1848 h; dosed: Perfluorooctane Sulfonate; 20 mg/kg; oral; Male; Harlan Sprague Dawley
Rat [17] = assay: concentration in brain after dosing; conditions: 1848 h; dosed: Perfluorooctane Sulfonate; 20 mg/kg; oral; Female; F344
Rat [18] = assay: concentration in plasma after dosing; conditions: dosed: Perfluorooctane Sulfonate, 2 mg/kg, oral, Female, Harlan Sprague Dawley
Rat [19] = assay: concentration in brain after dosing; conditions: 1848 h; dosed: Perfluorooctane Sulfonate; 20 mg/kg; oral; Male; Harlan Sprague Dawley
Rat [20] = assay: concentration in kidney after dosing; conditions: 1848 h; dosed: Perfluorooctane Sulfonate; 2 mg/kg; oral; Female; Harlan Sprague Dawley
Rat [21] = assay: concentration in liver after dosing; conditions: 6 h; dosed: Perfluorooctane Sulfonate; 20 mg/kg; oral; Female; F344
Rat [22] = assay: concentration in kidney after dosing; conditions: 1848 h; dosed: Perfluorooctane Sulfonate; 20 mg/kg; oral; Female; F344
Rat [23] = assay: concentration in brain after dosing; conditions: 24 h; dosed: Perfluorooctane Sulfonate; 2 mg/kg; oral; Female; Harlan Sprague Dawley
Rat [24] = assay: concentration in liver after dosing; conditions: 1848 h; dosed: Perfluorooctane Sulfonate; 2 mg/kg; oral; Female; Harlan Sprague Dawley
Rat [25] = assay: concentration in plasma after dosing; conditions: 6 h; dosed: 2-Methyltetrahydrofuran; 40 mg/kg; iv; Male; Harlan Sprague Dawley
Rat [26] = assay: concentration in brain after dosing; conditions: 0.2 h; dosed: 2-Methyltetrahydrofuran; 40 mg/kg; iv; Male; Harlan Sprague Dawley
Rat [27] = assay: concentration in brain after dosing; conditions: 1.5 h; dosed: 2-Methyltetrahydrofuran; 40 mg/kg; iv; Male; Harlan Sprague Dawley
Rat [28] = assay: concentration in plasma after dosing; conditions: 6 h; dosed: 2-Methyltetrahydrofuran; 40 mg/kg; iv; Male; Harlan Sprague Dawley; remark: listed apart in the source
Rat [29] = assay: concentration in plasma after dosing; conditions: 2 h; dosed: 2-Methyltetrahydrofuran; 40 mg/kg; iv; Male; Harlan Sprague Dawley
Rat [30] = assay: concentration in brain after dosing; conditions: 4 h; dosed: 2-Methyltetrahydrofuran; 40 mg/kg; iv; Male; Harlan Sprague Dawley
Rat [31] = assay: concentration in kidney after dosing; conditions: 1 h; dosed: Perfluorohexanoic Acid; 80 mg/kg; oral; Female; Harlan Sprague Dawley
Rat [32] = assay: concentration in plasma after dosing; conditions: 0.75 h; dosed: Perfluorohexanoic Acid; 80 mg/kg; oral; Male; Harlan Sprague Dawley
Rat [33] = assay: concentration in liver after dosing; conditions: 3 h; dosed: Perfluorohexanoic Acid; 80 mg/kg; oral; Male; Harlan Sprague Dawley
Rat [34] = assay: concentration in brain after dosing; conditions: 6 h; dosed: Perfluorohexanoic Acid; 80 mg/kg; oral; Male; Harlan Sprague Dawley
Rat [35] = assay: concentration in plasma after dosing; conditions: dosed: Perfluorohexanoic Acid, 40 mg/kg, oral, Male, Harlan Sprague Dawley
Rat [36] = assay: concentration in kidney after dosing; conditions: 0.5 h; dosed: Perfluorohexanoic Acid; 80 mg/kg; oral; Male; Harlan Sprague Dawley
Rat [37] = assay: concentration in brain after dosing; conditions: 1 h; dosed: Perfluorohexanoic Acid; 80 mg/kg; oral; Male; Harlan Sprague Dawley
Rat [38] = assay: concentration in plasma after dosing; conditions: 5 min; dosed: Perfluorohexanoic Acid; 40 mg/kg; iv; Male; F344
Rat [39] = assay: concentration in plasma after dosing; conditions: 0.5 h; dosed: Perfluorohexanoic Acid; 40 mg/kg; iv; Male; F344
Rat [40] = assay: concentration in kidney after dosing; conditions: 1 h; dosed: Perfluorohexanoic Acid; 80 mg/kg; oral; Female; Harlan Sprague Dawley; remark: listed apart in the source

Cc1ccc(C)c(OCCCC(C)(C)C(=O)O)c1 [Gemfibrozil]
Conditions	concentration in plasma [ng/mL]
Rat [1]	1640
Rat [2]	287
Rat [3]	7230
Rat [4]	1930
Rat [5]	1930
Rat [6]	1050

O=C(O)CCC(F)(F)C(F)(F)C(F)(F)C(F)(F)C(F)(F)C(F)(F)C(F)(F)F [Fluorotelomer acid 7+3]
Conditions	concentration in brain [ng/g]	concentration in kidney [ng/g]	concentration in liver [ng/g]
Rat [7]	305	–	–
Rat [8]	432	–	–
Rat [9]	81.2	–	–
Rat [10]	–	–	934
Rat [11]	–	–	1340
Rat [14]	–	751	–
Rat [15]	277	–	–

concentration in plasma [ng/mL]
Conditions	0.25 h	0.5 h	6 h	9 h
Rat [12]	41.6	–	841	–
Rat [13]	–	116	–	264

O=S(=O)([O-])C(F)(F)C(F)(F)C(F)(F)C(F)(F)C(F)(F)C(F)(F)C(F)(F)C(F)(F)F [Perfluorooctane Sulfonate]
Conditions	concentration in brain [ng/g]	concentration in kidney [ng/g]	concentration in liver [ng/g]
Rat [16]	–	–	59600
Rat [17]	1910	–	–
Rat [19]	2130	–	–
Rat [20]	–	2750	–
Rat [21]	–	–	169000
Rat [22]	–	22700	–
Rat [23]	553	–	–
Rat [24]	–	–	6900

Rat [18]
Conditions	concentration in plasma [ng/mL]
5 min	27.5
192 h	3830
1200 h	1210

CC1CCCO1 (stereo not given) [2-Methyltetrahydrofuran]
Conditions	concentration in brain [ng/mL]	concentration in plasma [ng/mL]
Rat [25]	–	29.7
Rat [26]	25500	–
Rat [27]	8330	–
Rat [28]	–	16.9
Rat [29]	–	12100
Rat [30]	1660	–

O=C(O)C(F)(F)C(F)(F)C(F)(F)C(F)(F)C(F)(F)F [Perfluorohexanoic Acid]
Conditions	concentration in brain [ng/g]	concentration in kidney [ng/g]	concentration in liver [ng/g]	concentration in plasma [ng/mL]
Rat [31]	–	76600	–	–
Rat [32]	–	–	–	129000
Rat [33]	–	–	37400	–
Rat [34]	694	–	–	–
Rat [36]	–	69600	–	–
Rat [37]	2670	–	–	–
Rat [38]	–	–	–	18600
Rat [39]	–	–	–	8680
Rat [40]	–	85800	–	–

Rat [35]
Conditions	concentration in plasma [ng/mL]
1 h	39400
24 h	423
